Measurements published in ChEMBL document CHEMBL1148126, “Triterpenoid constituents of Raulinoa echinata” (J Nat Prod, 2002).
In brackets after ≈: the same amount, converted by molar mass.

Columns and labels:
Trypanosoma cruzi = assay: Antitrypanosomal activity against Trypanosoma cruzi Y trypomastigotes; format: functional, organism-based
[1] = Toxicity in Artemia salina; format: organism-based; conditions: in vivo, read-out: LD50 (the source's name)

SMILES: CNc1ccccc1C(=O)O[C@H]1CC[C@]2(C)[C@H]3CC[C@]45C[C@]4(CC[C@H]5[C@@H]4C[C@H]([C@H](O)C(C)(C)O)O[C@H]4OC)[C@]3(C)[C@H](O)C[C@H]2C1(C)C
- IC50 (Trypanosoma cruzi): > 1000 µg/mL
- LC50 [1]: > 100 µg/mL

SMILES: CO[C@H]1O[C@@H]([C@H](O)C(C)(C)OC)C[C@H]1[C@@H]1CC[C@]2(C)C3=CC[C@H]4C(C)(C)C(=O)CC[C@]4(C)[C@H]3CC[C@@]12C
- IC50 (Trypanosoma cruzi): 114 µg/mL (≈ 222 µM)
- LC50 [1]: > 100 µg/mL

SMILES: CO[C@@H]1O[C@@H]([C@H](O)C(C)(C)OC)C[C@H]1[C@@H]1CC[C@]2(C)C3=CC[C@H]4C(C)(C)C(=O)CC[C@]4(C)[C@H]3CC[C@@]12C
- IC50 (Trypanosoma cruzi): 135 µg/mL (≈ 261 µM)
- LC50 [1]: > 100 µg/mL

SMILES: CNc1ccccc1C(=O)O[C@H]1CC[C@]2(C)[C@H]3CC[C@]45C[C@]4(CC[C@H]5[C@@H]4C[C@H]([C@H](O)C(C)(C)O)OC4O)[C@]3(C)[C@H](O)C[C@H]2C1(C)C (stereo partly specified)
- IC50 (Trypanosoma cruzi): > 1000 µg/mL
- LC50 [1]: > 100 µg/mL

SMILES: CNc1ccccc1C(=O)O[C@H]1CC[C@]2(C)[C@H]3CC[C@]45C[C@]4(CC[C@H]5[C@@H]4C[C@H]([C@H](O)C(C)(C)O)O[C@@H]4OC)[C@]3(C)[C@H](O)C[C@H]2C1(C)C
- IC50 (Trypanosoma cruzi): > 1000 µg/mL
- LC50 [1]: > 100 µg/mL

SMILES: CN(C)c1ccc(C(=C2C=CC(=[N+](C)C)C=C2)c2ccc(N(C)C)cc2)cc1.[Cl-] [GENTIAN VIOLET]
- IC50 (Trypanosoma cruzi): 7.5 µg/mL
